Assay results published in patent US20210196654A1, “METHOD OF TREATING CONDITIONS” (Clexio Biosciences Ltd., priority 2019, published 2021).
Like-named read-outs stand apart in the source and are kept apart here.

Tests used:
[1] = Single dose crossover study in healthy volunteers, pharmacokinetics; details: both, human, plasma; for AUC(0-inf): AUC0-inf; for AUC(0-inf) / AUC(0-t) / Cmax: geometric mean; for AUC(0-t): AUC0-t; for Cmax: 15 subjects; for half-life: t1/2, geometric mean; for Tmax: median
From the text: A randomized, open-label 4-way crossover study in 16 healthy male and female subjects was held wherein said subjects were placed in a randomly assigned order and administered esketamine. Each subject was assigned to 1 of 4 treatment sequences according to a randomization code such that 4 subjects were assigned to each treatment sequence. There was a wash-out period of at least 7 days between dosing periods with doses consisting of either oral or intravenous esketamine hydrochloride. The study consisted of an eligibility screening period of 28 days, 4 study periods involving administration of a single dose of esketamine hydrochloride followed by safety assessments with blood sampling for PK purposes up to 72 hours after study drug administration, discharge at 72 hours after study drug administration and a follow-up visit 7-14 days after the last PK blood sample was taken on Day 4.

[2] = system: animal models of depression; details: cited from earlier work
[3] = system: human peripheral blood lymphocytes (HPBL)
Experimental: (§1) The clastogenic potential of (S)-norketamine was evaluated in the in vitro mammalian chromosome aberration test using human peripheral blood lymphocytes (HPBL) in both the absence and presence of an induced metabolic activation system (the 9000 g supernatant [S9] microsomal fraction of liver homogenate from rats exposed to phenobarbital/5,6-benzoflavone).
The study was conducted in 2 phases, with a preliminary toxicity test used to determine the appropriate concentrations for the definitive chromosomal aberration assay. Water was used as a negative (vehicle) control. In both phases, the cells were treated for 3 and 21 hours in the absence of S9 mix and for 3 hours in the presence of S9 mix. The mitotic index was assessed for all cultures to determine cytotoxicity. Ten concentrations, ranging from […], were evaluated in the preliminary toxicity test.

[4] = system: human peripheral blood lymphocytes (HPBL); remark: listed apart in the source
Experimental: as §1, with “esketamine” for “(S)-norketamine”, “Aroclor-1254).” for “phenobarbital/5,6-benzoflavone).”
The study was conducted in 2 phases, with a preliminary toxicity test used to determine the appropriate concentrations for the definitive chromosomal aberration assay. Water was used as a negative (vehicle) control. Toxicity (defined as >45% reduction in MI relative to the vehicle control) was evaluated at 9 concentrations, ranging from 0.0238 to 238 μg/ml, after exposure of HPBL to esketamine for 20 hours in the absence of S9 activation, or for 4 hours, either in the presence or absence of S9 activation, followed by a 16-hour recovery period.
The definitive chromosome aberration assay evaluated HPBL cells after exposure to esketamine for 20 hours in the absence of S9 activation, or for 4 hours, either in the presence of absence of S9 activation, followed by a 16-hour recovery. Positive controls for chromosomal aberrations in non-activated and S9-activated evaluations, respectively, consisted of mitomycin C (MMC, 0.6 and 0.3 μg/mL for the 4- and 20-hour exposures, respectively) and cyclophosphamide (CP, 2.5, 5, and 7.5 μg/mL). […] Initially, the doses selected for evaluation of chromosomal aberrations were 60, 120, and 238 μg/mL for the non-activated 4- and 20-hour treatment conditions; and 30, 60, and 200 μg/mL for the S9-activated 4-hour treatment condition.

[5] = system: Parkinson's disease sufferers; details: cited from earlier work
chronic pain = details: oral; cited from earlier work
bipolar disorder = details: intravenous; cited from earlier work
[6] = system: Generalized Anxiety and Social Anxiety Disorder patients; details: treatment-refractory patients; cited from earlier work
[7] = Yanagihara et al (2003); cited from earlier work
[8] = iv, 0.3 mg/kg, plasma analyte after single dose esketamine 0.3 mg/kg iv
[9] = po, 20 mg, plasma analyte after single dose esketamine 20 mg oral solution
[10] = po, 20 mg, plasma analyte after single dose esketamine 20 mg oral tablet
[11] = po, 100 mg, plasma analyte after single dose esketamine 100 mg oral tablet
[12] = S9-activated system, positive control

Structure (SMILES): N[C@]1(c2ccccc2Cl)CCC[C@H](O)C1=O [(2S,6S)-OH-Norketamine, (2S,6S)-2-Amino-2-(2-chlorophenyl)-6-hydroxycyclohexanone]
- AUC(0-inf) [1, 8]: 390 ng·h/mL
- AUC(0-t) [1, 8]: 376 ng·h/mL
- Cmax [1, 8]: 24.8 ng/mL
- half-life [1, 8]: 10.7 h
- Tmax [1, 8]: 3 h
- AUC(0-inf) [1, 9]: 378 ng·h/mL
- AUC(0-inf) [1, 10]: 401 ng·h/mL
- AUC(0-t) [1, 9]: 366 ng·h/mL
- AUC(0-t) [1, 10]: 390 ng·h/mL
- Cmax [1, 9]: 46.5 ng/mL
- Cmax [1, 10]: 45.8 ng/mL
- half-life [1, 9]: 7.83 h
- half-life [1, 10]: 7.77 h
- Tmax [1, 9]: 1 h
- Tmax [1, 10]: 1.5 h
- AUC(0-inf) [1, 11]: 1960 ng·h/mL
- AUC(0-t) [1, 11]: 1950 ng·h/mL
- Cmax [1, 11]: 189 ng/mL
- half-life [1, 11]: 8.92 h
- Tmax [1, 11]: 2 h

Structure (SMILES): CN[C@@]1(c2ccccc2Cl)CCCCC1=O [(R)-ketamine, (2R)-2-(2-Chlorophenyl)-2-(methylamino) cyclohexanone]
- antidepressant effects compared with esketamine [2]: greater potency and longer-lasting antidepressant effects than esketamine

Structure (SMILES): N[C@]1(c2ccccc2Cl)CCCCC1=O [(S)-norketamine, (2S)-2-(2-Chlorophenyl)-2-(amino) cyclohexanone]
- AUC(0-inf) [1, 8]: 441 ng·h/mL
- AUC(0-t) [1, 8]: 426 ng·h/mL
- Cmax [1, 8]: 42.2 ng/mL
- half-life [1, 8]: 11.3 h
- Tmax [1, 8]: 1.25 h
- AUC(0-inf) [1, 9]: 417 ng·h/mL
- AUC(0-inf) [1, 10]: 429 ng·h/mL
- AUC(0-t) [1, 9]: 405 ng·h/mL
- AUC(0-t) [1, 10]: 418 ng·h/mL
- Cmax [1, 9]: 99.8 ng/mL
- Cmax [1, 10]: 89.7 ng/mL
- half-life [1, 9]: 8.88 h
- half-life [1, 10]: 8.75 h
- Tmax [1, 9]: 0.75 h
- Tmax [1, 10]: 1 h
- AUC(0-inf) [1, 11]: 2280 ng·h/mL
- AUC(0-t) [1, 11]: 2270 ng·h/mL
- Cmax [1, 11]: 352 ng/mL
- half-life [1, 11]: 9.27 h
- Tmax [1, 11]: 1 h
- Toxicity (mitotic index), preliminary toxicity test [3]: not observed at any dose
- clastogenicity, conclusion [3]: non-clastogenic
- proportion of metaphase figures containing chromosomal aberrations vs vehicle control [3]: no statistically significant increases
- proportion of polyploid or endoreduplicated metaphase cells vs vehicle control ([3]; any treatment condition): No statistically significant increases

Structure (SMILES): O=P1(N(CCCl)CCCl)NCCCO1 (centres unmarked) [CP, cyclophosphamide]
- cells with structural aberrations [4, 12]: 10.7%
- mean MI value [4, 12]: 6.2%
- proportion of aberrant cells ([3]; positive control compounds): statistically significant increases

Structure (SMILES): CO[C@@]12[C@H](COC(N)=O)C3=C(C(=O)C(C)=C(N)C3=O)N1C[C@@H]1N[C@@H]12 [MMC, mitomycin C]
- cells with structural chromosomal aberrations [4]: 13.3%
- mean MI value ([4]; non-activated systems, positive control): 9%
- proportion of aberrant cells [3]: statistically significant increases

Structure (SMILES): CNC1(c2ccccc2Cl)CCCCC1=O (stereo not drawn) [ketamine, dl 2-(2-chlorophenyl)-2(methylamino) cyclohexanone]
- levodopa induced dyskinesia [5]: could reduce levodopa induced dyskinesia
- chronic pain (chronic pain): could reduce chronic pain
- effect in bipolar disorder (bipolar disorder): robust and rapid effect
- anxiety ratings [6]: improvement in anxiety ratings within an hour of ketamine dosing which persisted for up to a week
- nasal bioavailability [7]: 45%
